Holding throughout (format): in vivo
In assay [1] the test system is LDH in serum of pulmonary fibrosis model mouse. In words: Effect on LDH in serum of pulmonary fibrosis model mouse. As to conditions: bleomycin pulmonary fibrosis mouse, ig 28 d, dose/kg: prednisone acetate 5 mg, Test group 1 50, 2 25, 3 12.5, picrinine 5.0, vallesamine 3.0, scholaricine 3.5, 19-epi-scholaricine 1.0 mg, x ± SD. As for the experimental part: (§1) Animal source: 30˜35 g male ICR mouse, from laboratory animal department of Kunming Medical University, License No. SCXK (Dian) 2011-0004.
(§2) Method and route: bleomycin was used to induce mouse pulmonary fibrosis, and after intragastrical administration for 28 d at a dose of 20 mL/kg, the animal was sacrificed at the 29th day.
(§3) Group and dose: Sham group, Model group, Positive control group, prednisone acetate (5 mg/kg) group, Test group 1: picrinine, vallesamine, scholaricine and 19-epischolaricine prepared in Example 1.7 were mixed at different ratios by weight (50 mg/kg), Test group 2: the alkaloid composition (25 mg/kg) prepared in Example 1.5, Test group 3: the alkaloid composition (12.5 mg/kg) prepared in Example 1.6, Picrinine group (5.0 mg/kg), Vallesamine group (3.0 mg/kg), Scholaricine group (3.5 mg/kg), and 19-epischolaricine group (1.0 mg/kg).
(§4) Positive control drug: prednisone acetate tablet, Approval number: H33021207, 5 mg/tablet, produced by Zhejiang Xianju Pharmaceutical Co., Ltd., Batch No. 140146.
(§5) Sample preparation: all the samples were prepared by using 0.5% carboxymethylcellulose sodium (0.5% CMC-Na). […]
Test index: LDH in serum was used as index, and was determined by 2, 4-dinitrophenylhydrazine method.

For assay [2], the system named is KL-6 in serum of pulmonary fibrosis model mouse. Nature of the assay: Effect on KL-6 in serum of pulmonary fibrosis model mouse. As to conditions: ELISA, bleomycin pulmonary fibrosis mouse, ig 28 d, dose/kg: prednisone acetate 5 mg, Test group 1 50, 2 25, 3 12.5, picrinine 5.0, vallesamine 3.0, scholaricine 3.5, 19-epi-scholaricine 1.0 mg, x ± SD. As for the experimental part:
as §1, §2, §3, §4
(§6) Sample preparation: all the samples were prepared by using 0.5% carboxymethylcellulose sodium (0.5% CMC-Na).
Group and dose: in Test group 1, the ratio of picrinine, vallesamine, scholaricine and 19-epischolaricine by weight was 45:38:30:8, and the other groups and doses thereof were as described in Example 12.
Test index: KL-6 in serum was used as index, and was determined by enzyme linked immunosorbent assay.
On the technique in general: ELISA stands for enzyme-linked immunosorbent assay.

Assay [3] deals with SOD in serum and homogenate of pulmonary fibrosis model mouse. Nature of the assay: Effect on SOD in serum and homogenate of pulmonary fibrosis model mouse. The following applies: bleomycin pulmonary fibrosis mouse, ig 28 d, dose/kg: prednisone acetate 5 mg, Test group 1 50, 2 25, 3 12.5, picrinine 5.0, vallesamine 3.0, scholaricine 3.5, 19-epi-scholaricine 1.0 mg, x ± SD. On the procedure: as §1, §2, §3, §4, §6
Group and dose: in Test group 1, the ratio of picrinine, vallesamine, scholaricine and 19-epischolaricine by weight was 10:7:7:2, and the other groups and doses thereof were as described in Example 12.
Test index: SOD in serum and homogenate was used as index, and was determined by xanthine oxidase method.

Assay [4] concerns Hyp in homogenate of pulmonary fibrosis model mouse. In words: Effect on Hyp in homogenate of pulmonary fibrosis model mouse. As to conditions: bleomycin pulmonary fibrosis mouse, ig 28 d, dose/kg: prednisone acetate 5 mg, Test group 1 50, 2 25, 3 12.5, picrinine 5.0, vallesamine 3.0, scholaricine 3.5, 19-epi-scholaricine 1.0 mg, x ± SD. As for the experimental part:
as §1, §2, §3, §4, §5
Test index: Hyp in homogenate was used as index, and was determined by enzyme linked immunosorbent assay.

The subject of assay [5] is Col-1 in homogenate of pulmonary fibrosis model mouse. Nature of the assay: Effect on Col-1 in homogenate of pulmonary fibrosis model mouse. The following applies: ELISA, bleomycin pulmonary fibrosis mouse, ig 28 d, dose/kg: prednisone acetate 5 mg, Test group 1 50, 2 25, 3 12.5, picrinine 5.0, vallesamine 3.0, scholaricine 3.5, 19-epi-scholaricine 1.0 mg, x ± SD. On the procedure: as §1, §2, §3, §4, §6
Group and dose: in Test group 1, the ratio of picrinine, vallesamine, scholaricine and 19-epischolaricine by weight was 20:17:17:4, and the other groups and doses thereof were as described in Example 12.
Test index: Col-1 in homogenate was used as index, and was determined by enzyme linked immunosorbent assay.

Assay [6] has as its system MDA in serum and homogenate of pulmonary fibrosis model mouse. Nature of the assay: Effect on MDA in serum and homogenate of pulmonary fibrosis model mouse. The following applies: bleomycin pulmonary fibrosis mouse, ig 28 d, dose/kg: prednisone acetate 5 mg, Test group 1 50, 2 25, 3 12.5, picrinine 5.0, vallesamine 3.0, scholaricine 3.5, 19-epi-scholaricine 1.0 mg, x ± SD. On the procedure:
as §1, §2, §3, §4, §6
Group and dose: in Test group 1, the ratio of picrinine, vallesamine, scholaricine and 19-epischolaricine by weight was 8:5:5:1, and the other groups and doses thereof were as described in Example 12.
Test index: MDA in serum and homogenate was used as index, and was determined by thiobabituric acid method.

The subject of assay [7] is MDA in serum and homogenate of COPD model mouse. In words: Effect on MDA in serum and homogenate of COPD model mouse. The following applies: ig 7 d. On the procedure: (§7) Animal source: 25˜30 g male ICR mouse, from laboratory animal department of Kunming Medical University, License No. SCXK (Dian) 2011-0004.
(§8) Method and route: lipopolysaccharide (LPS) plus smoke exposure was used for 30 days to induce mouse chronic obstructive pulmonary disease model; and after intragastrical administration for 7 d at a dose of 20 mL/kg, the animal was sacrificed at the eighth day.
(§9) Picrinine group (10 mg/kg), Vallesamine group (6.0 mg/kg), Scholaricine group (7.0 mg/kg), 19-epischolaricine group (2.0 mg/kg).
as §6
Group and dose: in Test group 1, the ratio of picrinine, vallesamine, scholaricine and 19-epischolaricine by weight was 9:6:5:1, and the other groups and doses thereof were as described in Example 10.
Test index: MDA in serum and homogenate was used as index, and was determined by thibabituric acid method.

The subject of assay [8] is MDA in serum and BALF of asthma model mouse. In words: Effect on MDA in serum and BALF of asthma model mouse. As to conditions: ig 7 d, dose/kg: dexamethasone 2.0 mg, Test group 1 50, 2 25, picrinine 5.0, vallesamine 3.0, scholaricine 3.0, 19-epi-scholaricine 3.5 mg, x ± SD. As for the experimental part:
as §7
(§10) Method and route: ovalbumin (OVA) was used to induce mouse asthma model, and after intragastrical administration for 7 d at a dose of 20 mL/kg, the animal was sacrificed at the eighth day.
(§11) Test group 1: picrinine, vallesamine, scholaricine and 19-epischolaricine prepared in Example 1.7 were homogeneously mixed at different ratios by weight (50 mg/kg), Test group 2: the alkaloid composition prepared in Example 1.4 (25 mg/kg). […]
as §6
Group and dose: in Test group 1, the ratio of picrinine, vallesamine, scholaricine and 19-epischolaricine by weight was 8:6:5:1, and the other groups and doses thereof were as described in Example 11.
Test index: MDA in serum and BALF was used as index, and was determined by thiobarbituric acid method.

In assay [9] the test system is IL-4 in BALF of asthma model mouse. In words: Effect on IL-4 in BALF of asthma model mouse. As to conditions: ELISA, ig 7 d, dose/kg: dexamethasone 2.0 mg, Test group 1 50, 2 25, picrinine 5.0, vallesamine 3.0, scholaricine 3.0, 19-epi-scholaricine 3.5 mg, x ± SD. On the procedure: as §7, §10, §11, §6
Group and dose: in Test group 1, the ratio of picrinine, vallesamine, scholaricine and 19-epischolaricine by weight was 25:18:15:3, and the other groups and doses thereof were as described in Example 11. […]

Assay [10] deals with CRP in serum in COPD model mouse. Nature of the assay: Effect on CRP in serum in COPD model mouse. As to conditions: ELISA, ig 7 d, dose/kg: dexamethasone 1 mg, Test group 1 50, 2 25, 3 10, picrinine 10, vallesamine 6, scholaricine 7, 19-epi-scholaricine 2 mg, x ± SD. As for the experimental part: as §7, §8, §9, §6
Group and dose: in Test group 1, the ratio of picrinine, vallesamine, scholaricine and 19-epischolaricine by weight was 25:19:20:4, and the other groups and doses thereof were as described in Example 10.
Test index: CRP in serum was used as index, and was determined by enzyme linked immunosorbent assay.

The subject of assay [11] is SOD in serum and BALF of asthma model mouse. Nature of the assay: Effect on SOD in serum and BALF of asthma model mouse. As to conditions: ig 7 d, dose/kg: dexamethasone 2.0 mg, Test group 1 50, 2 25, picrinine 5.0, vallesamine 3.0, scholaricine 3.0, 19-epi-scholaricine 3.5 mg, x ± SD. As for the experimental part:
as §7, §10, §11, §6
Group and dose: in Test group 1, the ratio of picrinine, vallesamine, scholaricine and 19-epischolaricine by weight was 12:10:9:2, and the other groups and doses thereof were as described in Example 11.
Test index: SOD in serum and BALF was used as index, and was determined by xanthine oxidase method.

Assay [12] relates to white blood cell count and classification in BALF of COPD model mouse. Nature of the assay: Effect on white blood cell count and classification in BALF of COPD model mouse. As to conditions: COPD mouse (LPS plus smoke exposure 30 days), ig 7 d, dose/kg: dexamethasone 1 mg, Test group 1 50, 2 25, 3 10, picrinine 10, vallesamine 6, scholaricine 7, 19-epi-scholaricine 2 mg, x ± SD. As for the experimental part:
as §7, §8, §9, §6
Group and dose: in Test group 1, the ratio of picrinine, vallesamine, scholaricine and 19-epischolaricine by weight was 48:40:29:10, and the other groups and doses thereof were as described in Example 10.
Test index: total number of white blood cells and inflammatory cell classification in bronchoalveolar lavage fluid (BALF) were used as indexes, and were determined by full-automatic hemocytometer.

Assay [13] deals with SOD in serum and homogenate of COPD model mouse. In words: Effect on SOD in serum and homogenate of COPD model mouse. As to conditions: ig 7 d, dose/kg: dexamethasone 1 mg, Test group 1 50, 2 25, 3 10, picrinine 10, vallesamine 6, scholaricine 7, 19-epi-scholaricine 2 mg, x ± SD. As for the experimental part: as §7, §8, §9, §6
Group and dose: in Test group 1, the ratio of picrinine, vallesamine, scholaricine and 19-epischolaricine by weight was 16:11:12:3, and the other groups and doses thereof were as described in Example 10.
Test index: SOD in serum and lung homogenate was used as index, and was determined by xanthine oxidase method.

In turn, `CC(=O)OCC(=O)[C@@]1(O)CC[C@H]2[C@@H]3CCC4=CC(=O)C=C[C@]4(C)[C@H]3C(=O)C[C@@]21C` [prednisone acetate, reference compound] came in with an LDH in [1] of 10.5 ± 3.4 U/g prot. Moreover, the KL-6 in assay [2] was found to be 3.00 ± 1.00 U/mg prot. Further, in [3] (homogenate), the “SOD homogenate” value was found to be 60.0 ± 15.9 U/mg prot. In assay [3] (serum), the “SOD Serum” value is 15.5 ± 3.8 U/mg prot. Besides, the Hyp in assay [4] was 2.9 ± 0.8 μg/g prot. Moreover, in assay [5], the Col-1 stood at 6.0 ± 2.1 μg/g prot. In addition, in [6] (homogenate), the “MDA Homogenate” value is recorded as 19.0 ± 6.6 nmol/mg prot. Besides, the “MDA Serum” value in assay [6] (serum) is 0.55 ± 0.17 nmol/mg prot.
For the molecule `COC(=O)C1=C2Nc3c(O)cccc3[C@@]23CCN2C[C@@H]([C@@H](C)O)[C@@H]1C[C@H]23` [scholaricine], the “content of MDA (serum or homogenate not given)” value in [7] (vallesamine 6, scholaricine 7, 19-epi-scholaricine 2 mg/kg) was “significantly decrease”. Further, the “MDA Homogenate” value in [7] (lung homogenate, dose/kg: dexamethasone 1 mg, Test group 1 50, 2 25, 3 10, picrinine 10, vallesamine 6, scholaricine 7, 19-epi-scholaricine 2 mg, x ± SD) came out at 6.09 ± 1.25 nmol/mL. Moreover, the “MDA Serum” value in [7] (serum, dose/kg: dexamethasone 1 mg, Test group 1 50, 2 25, 3 10, picrinine 10, vallesamine 6, scholaricine 7, 19-epi-scholaricine 2 mg, x ± SD) is recorded as 12.21 ± 3.38 nmol/mL; in assay [8] (serum), 9.19 ± 2.77 nmol/mL. This molecule yielded an MDA lavage fluid in assay [8] (BALF) of 2.43 ± 1.05 nmol/mL. This molecule also registered an LDH in [1] of 12.5 ± 3.2 U/g prot. Also, the IL-4 in [9] stood at 11.21 ± 3.62 pg/mL. The same molecule had a CRP in [10] of 24.4 ± 2.4 pg/mL. Further, the SOD lavage fluid in assay [11] (BALF) came to 76.78 ± 8.01 U/mL. Besides, the values for the SOD Serum in [11] (serum) and in [13] (serum) were 73.36 ± 8.44 U/mL and 93.61 ± 12.37 U/mL, respectively. The molecule also returned a Hyp in assay [4] of 6.5 ± 1.5 μg/g prot. Moreover, the Leukocyte number in assay [12] is 2.5 ± 3.5 ×10^5/mL. The Neutrophil number in [12] is listed as 0.66 ± 0.81 ×10^5/mL. Further, the SOD homogenate in assay [13] (lung homogenate) was found to be 58.43 ± 7.04 U/mL.

These data come from patent publication US10603345B2, “Pharmaceutical composition for treating respiratory disease” (Kunming Institute of Botany, The Chinese Academy of Sciences, priority 2015, dated 2020).
